Reference: patent US12590125B2, “Peptide inhibitors for the inhibition of HIV capsid” (THE CURATORS OF THE UNIVERSITY OF MISSOURI, priority 2019, dated 2026)
Read-outs that look alike come from different tables or passages of the source. Residues, ends and D or L forms follow the SMILES beside them.

Experiments:
HIV [1] = conditions: MT-4 cells; read-out: EC50, anti-HIV activity; cited from earlier work
HIV-1 = conditions: PBMCs, 23 HIV-1 clinical isolates from different subtypes, cited from earlier work
HIV [2] = conditions: MT-2 cells; cited from earlier work
CA-hexamers = conditions: read-out: binding affinity of CA-hexamers with PF74 by ITC; isothermal calorimetry, Bhattacharya et al., 2014; cited from earlier work
HIV-1 CA-hexamers = HIV-1 CA-hexamers (Human immunodeficiency virus type 1 group M subtype B, UniProt P12493); test: biochemical; assay type: binding
Experimental: During the MST experiment, a temperature gradient is induced by an infrared laser. The directed movement of molecules through the temperature gradient is detected and quantified using covalently attached fluorophore.
Fluorescent labeling of CA with Alexa Fluor 647 analog NT647 was performed according to the manufacturer's instructions (MO-L004 Monolith Protein Labeling Kit; NanoTemper Technologies GmbH, Munich, Germany). 20 μM protein was incubated overnight with 3 molar excess of dye at room temperature in a conjugation buffer provided with the labeling kit. The unreacted dye was removed by filtration through a gravity flow column provided with the kit. The elution fractions were collected in 2×MST buffer (100 mM MOPS, pH 7.0, 200 mM NaCl, and 0.2% pluronic F-127). Fluorescence intensity of each fraction was evaluated by MST (Monolith NT.115, NanoTemper Technologies GmbH, Munich, Germany), and fractions containing labelled protein were pooled. Protein concentration was determined by NANODROP (Thermo Scientific, Waltham, MA) spectrophotometer. Aliquots were stored at −80° C. until use. […] The data were analyzed using MO. Affinity software (version 2.3) (NanoTempet Technologies, CA) by fitting the data point to a quadratic equation (Equation 1) and plotting by PRISM (Version 6.0) (GraphPad Inc. La Jolla, CA).

For `CC(C)(C#Cc1ccc(-c2ccc(Cl)c3c(NS(C)(=O)=O)nn(CC(F)(F)F)c23)c([C@H](Cc2cc(F)cc(F)c2)NC(=O)Cn2nc(C(F)(F)F)c3c2C(F)(F)[C@@H]2C[C@H]32)n1)S(C)(=O)=O` [GS-6207], the EC50 (HIV [1]) is given as 0.1 nM, the EC50 (HIV-1; read-out: mean EC50) is given as 0.05 nM and the EC50 (HIV-1; read-out: range of EC50 over clinical isolates) is given as 0.02 to 0.16 nM.
In the case of `Cc1[nH]c2ccccc2c1CC(=O)N[C@@H](Cc1ccccc1)C(=O)N(C)c1ccccc1` [PF74], the EC50 (HIV [2]) is given as 570 nM and the Kd (CA-hexamers) is given as 262 nM.
For `CC(C)[C@@H]1NC(=O)CNC(=O)[C@H](CO)NC(=O)CNC(=O)[C@@H]2CCCN2C(=O)[C@H](Cc2ccccc2)NC(=O)[C@H](CC(N)=O)NC(=O)[C@H](C(C)C)NC(=O)[C@@H]2CCCN2C(=O)CNC(=O)[C@H](Cc2ccccc2)NC(=O)[C@H]([C@@H](C)O)NC(=O)[C@H](Cc2ccccc2)NC1=O` [Pep-2-cyclic] (cyclo(FGPVNFPGSGVFT)), the Kd (HIV-1 CA-hexamers) was 32 ± 3 nM and the “fold better CA binding affinity than PF74” value (HIV-1 CA-hexamers; Pep-2-cyclic vs PF74, MST) was ~7 fold.
